The text below walks through data of patent publication US12398110B2, “Second generation inhibitors of mitochondrial permeability transition pore with improved plasma stability” (Oregon Health & Science University, priority 2019, dated 2025).

Read-outs that look alike come from different tables or passages of the source.

Data set [1] in a line: Plasma stability determination in mouse plasma. Type of data set: in vitro ADME. Particulars: mouse. As for the experimental part: Plasma stability determination. The degradation of TR001 in the presence of mouse plasma (from Innovative Research) was used to predict the plasma stability of the compound to esterase catalyzed hydrolysis. A positive control for plasma cholinesterase, propantheline bromide, was included in all assays. Briefly, murine plasma was incubated with 1 μm TR001. Aliquots were removed at t=0, 5, 15, 30, and 60 and 120 min and quenched with acetonitrile containing structurally related compound (TR073) as the internal standard. The amount of TR001 remaining in the supernatant was assessed by LC-MS/MS in multiple reaction monitoring mode (MRM) using a 4000 QTRAP (SCIEX) with electrospray ionization source. The instrument was operated in negative mode with source parameters: source voltage […], GS1 50, GS2 50, CUR 30, TEM 650 and CAD gas MED. Optimal MRM transitions were obtained by direct infusion of the pure compound into the source. The mass spectrometer was interfaced to a Shimadzu (Columbia, MD) SIL-20AC XR auto-sampler maintained at 35° C. followed by 2 LC-20AD XR LC pumps. The internal standard and compound of interest were resolved using a Gemini-NX C18 50×2.1 mm column (Phenomenex) with 0.1% formic acid (solvent A) and 0.1% formic acid in acetonitrile (solvent B). The injection volume was 10 μL at a flow rate of 0.75 mL/min. The gradient elution was 10% B to 95% B over 5 min and held at 95% for 1 min before returning to start conditions. The column was maintained at 40° C. using a Shimadzu CTO-20AC column oven. Data were acquired using Analyst 1.6.2 and analyzed using Multiquant 3.0.1 software. The first-order rate constant for substrate depletion was determined from a linear least squares fit of the natural log of the percent parent compound remaining versus time. The rate constant was used to calculate the plasma half-life as an indicator of stability.

The subject of data set [2] is col6a1 zebrafish morphants. Description: Spontaneous coiling events in col6a1 zebrafish morphants. In kind it is in vivo. Conditions: 24 hpf, 3 hours of treatment, 0.1, 1 or 10 μm. As for the experimental part:
(§1) Zebrafish embryos were injected with col6a1 morpholino at the 1-cell stage, dechorionated at 20 hpf and treated at 21 hpf with 0.1, 1 or 10 μm of either TR001 or 63. DMSO-treated embryos injected with a scrambled morpholino were used as a control. […] It should be noted that in these protocols, embryos were exposed to drugs for a longer period of time than in the spontaneous coiling experiments. This difference may help to explain why TR001 was as effective at 0.1 μm as it was at 1 and 10 μm.
Morpholino antisense injection and treatment. Knock-down of col6a1 gene expression was obtained with a previously published morpholino ^[25] with sequence GAGAGCGGAAGACGAACCTTCATTC (SEQ ID NO: 2; GeneTools, Inc.). A control morpholino with no sequence homology in the zebrafish genome was used in parallel (CCTCTTACCTCAGTTACAATTTATA; SEQ ID NO: 3). […]
Motor activity. The number of spontaneous coiling events performed in 15 seconds by single zebrafish embryos was recorded at 24 hpf by light microscopy. Touch-evoked escape responses were recorded at 48 hpf by observing the ability of zebrafish embryos to escape after a tail-touch with a little tip. […]

Data set [3] has as its system col6a1 zebrafish morphants. In words: Touch-evoked escape response in col6a1 zebrafish morphants. Type of data set: in vivo. Conditions: 48 hpf. As for the experimental part:
as §1
(§2) Morpholino antisense injection and treatment. Knock-down of col6a1 gene expression was obtained with a previously published morpholino ^[25] with sequence GAGAGCGGAAGACGAACCTTCATTC (SEQ ID NO: 2; GeneTools, Inc.). A control morpholino with no sequence homology in the zebrafish genome was used in parallel (CCTCTTACCTCAGTTACAATTTATA; SEQ ID NO: 3). Zebrafish eggs from wild-type matings were injected at the 1-2 cell stage with approximately 10 nL of 0.1 mm morpholino solution (corresponding to 4 ng of morpholino) using a WPI pneumatic PicoPump PV820 injector (World Precision Instruments, Inc.). Zebrafish embryos were dechorionated at 20 hours post fertilization (hpf) and treated at 21 hpf with increasing doses (0.1, 1 and 10 μm) of both TR001 and 63 compounds dissolved in fish water with 1% DMSO (vehicle).
Motor activity. The number of spontaneous coiling events performed in 15 seconds by single zebrafish embryos was recorded at 24 hpf by light microscopy. Touch-evoked escape responses were recorded at 48 hpf by observing the ability of zebrafish embryos to escape after a tail-touch with a little tip. Embryos were subdivided in 4 groups according to the observed phenotype: paralyzed embryos, score 0; underdeveloped embryos showing only coiling events, score 1; embryos showing lower motility, score 2; normal embryos, score 3.

Data set [4] concerns col6a1 zebrafish morphants. In words: Birefringence (muscle structure) in col6a1 zebrafish morphants. Conditions: 48 hpf. In kind it is in vivo. As for the experimental part:
Muscle structure was assessed by birefringence analysis at 48 hpf, a time when muscle tissue is fully developed and organized muscle fibers start to show anisotropic features. A high percentage of severe birefringence abnormality (>75%, FIG. 6C) was detected in col6a1 morphants, indicating major defects of muscle fiber development and organization.
as §2, with “Zebrafish embryos were dechorionated at 20 hours post fertilization (hpf) and treated at 21 hpf with increasing doses (0.1, 1 and 10 μm) of both TR001 and 63 compounds dissolved in fish water with 1% DMSO (vehicle).” left out
Birefringence. Muscle structure was monitored by birefringence analysis, taking advantage of muscle anisotropy, which is the ability of muscle fibers to refract polarized light. […] With this set-up, light refracted by muscle fibers (due to the pseudo-crystalline array of sarcomeres) is transmitted and analyzed. Integrated area of birefringence was calculated using ImageJ software. […]

Data set [5] deals with col6a1 zebrafish morphants. Description: Survival of col6a1 zebrafish morphants. Type of data set: in vivo.
Excerpt: In FIG. 6D, the left panel represents data from embryos injected with a scrambled morpholino (scrd_MO, open squares), Exon 9 col6a1 morpholino (col6a1_MO, closed squares) and col6a1_MO embryos treated with TR001 at 0.1 μm (open circles), 1.0 μm (open triangles), 10 μm (open diamonds). Right panel represents data from embryos injected with a scrambled morpholino (scrd_MO, open squares), Exon 9 col6a1 morpholino (col6a1_MO, closed squares) and col6a1_MO embryos treated with 63 at […] (closed circles), 1.0 μm (closed triangles), 10 μm (closed diamonds). Embryos were treated with oligomycin, FCCP, rotenone (R) and antimycin A (A) as indicated. Results are presented as mean±SEM. Both graphs report data from 5 independent experiments with n=20 for each treatment. Error bars are reported as SEM. FIG. 6E, Survival of DMSO-treated zebrafish injected with the scrambled morpholino (open squares), DMSO-treated col6a1 morphants (closed squares) and col6a1 morphants treated with TR001 (0.1 μm, open triangles; 1.0 μm, open circles; 10 μm, open diamonds) or 63 (0.1 μm, closed triangles; 1.0 μm, closed circles; 10 μm, closed diamonds) were recorded for 30 days. Treatment started at 21 hpf and repeated at 4 dpf (arrows). Data report the percentage of surviving fish and are mean±SEM from 3 independent experiments (n=15 for each condition in each set).
Finally, fish survival was also assessed. Fifty percent of col6a1 morphant embryos treated with 0.1 μm of TR001 survived 7 days longer than col6a1 morphants treated with DMSO (p<0.0001 from 3 to 12 dpf), and 20% were still alive at 30 dpf (i.e., after 29 days of treatment) (FIG. 6E).
as §2
Survival. Zebrafish survival was monitored every 3 days for 30 days. Drug treatment with both TR001 and 63 dissolved in fish water with 1% DMSO started at 21 hpf. After 3 days of treatment (4 days post fertilization, dpf), zebrafish were moved to a bigger tank (50 mL) with fresh compounds dissolved in 1% DMSO. As a control vehicle, fish water with 1% DMSO was used.

For data set [6], the system named is mitochondria. Conditions: from Roy et al. [12]; cited from earlier work.

As for `Cc1ccc(Cl)cc1NC(=O)c1cc(-c2ccc(F)c(O)c2)on1` [Compound 63, reference compound], the half-life at 1 µM in data set [1] (plasma, read-out: half-life (t1/2) in plasma) turned out to be 0.35 h. Further, the spontaneous coiling events result in data set [2] is given as “no effect”. In addition, the entries for the “touch-evoked escape response (motility)” value in data set [3] (0.1-1.0 μM) and in data set [3] (10 μm) were “minimal recovery” and “no longer seen”, respectively. Further, the “muscle structure by birefringence” value in data set [4] is recorded as “minimal effect”. In addition, the “survival (in words)” value in data set [5] (1 μm) is recorded as “ineffected”; in data set [5] (10 μm), “ineffected”; in data set [5] (lowest concentration tested (0.1 μm)) it was “decreased activity compared to TR001”.
For the compound `COc1ccc(-c2cc(C(=O)Nc3cc(Cl)cnc3C)nn2C)cc1O` [Compound 74], the half-life at 1 µM in data set [1] (read-out: Mouse Plasma t1/2) was found to be 2.52 h. Also, the mitochondrial toxicity entry in data set [6] is reported as “exhibited mitochondrial toxicity”.
As to `COc1ccc(-c2cc(C(=O)Nc3cc(Cl)ccc3C)nn2C)cc1O` [Compound 73], the half-life at 1 µM in data set [1] (read-out: Mouse Plasma t1/2) was 1.42 h. Also, the mitochondrial toxicity result in data set [6] is “exhibited mitochondrial toxicity”.
Regarding `Cc1ccc(Cl)cc1NC(=O)c1cc(-c2ccc(F)c(O)c2)[nH]n1` [Compound 72], in data set [1] (read-out: Mouse Plasma t1/2), the half-life at 1 µM was determined as 8.88 h. Further, the mitochondrial toxicity result in data set [6] was “exhibited mitochondrial toxicity”.
